Converted amounts (≈) assume the structure as drawn. The source made the active and inactive calls. The calls are words filed in the database; no cut-off is given here.
What was measured:
[1] = test system: Mycobacterium tuberculosis; experiment: Antitubercular activity against Mycobacterium tuberculosis H37Rv ATCC 27294 by microplate alamar blue assay; assay type: functional
Candida albicans = experiment: Antifungal activity against Candida albicans by microplate alamar blue assay; assay type: functional
[2] = test system: Mycobacterium tuberculosis; experiment: Bactericidal activity against Mycobacterium tuberculosis H37Rv measured up to 7 days by luminescence assay; assay type: functional; details: time <= 7 day
[3] = test system: Mycobacterium tuberculosis; experiment: Antitubercular activity against Mycobacterium tuberculosis KMA 4244 by microplate alamar blue assay; assay type: functional
Mycobacterium marinum = experiment: Antibacterial activity against Mycobacterium marinum ATCC 927 incubated for 5 days by microplate alamar blue assay; assay type: functional; details: ATCC 927, 120 h, time 5 day
Mycobacterium kansasii = experiment: Antibacterial activity against Mycobacterium kansasii ATCC 12478 incubated for 7 days by microplate alamar blue assay; assay type: functional; details: ATCC 12478, 168 h, time 7 day
Mycobacterium avium = experiment: Antibacterial activity against Mycobacterium avium ATCC 15769 incubated for 6 days by microplate alamar blue assay; assay type: functional; details: ATCC 15769, 144 h, time 6 day
[4] = test system: Mycobacterium tuberculosis; experiment: Antitubercular activity against Mycobacterium tuberculosis KMA 5282 by microplate alamar blue assay; assay type: functional
[5] = test system: Mycobacterium tuberculosis; experiment: Antitubercular activity against Mycobacterium tuberculosis KMA 1354 by microplate alamar blue assay; assay type: functional
[6] = Cytotoxicity against African green monkey Vero cells measured after 3 days by resazurin dye based fluorescence assay; assay type: toxicity, cell-based; details: African green monkey (Chlorocebus sabaeus)
[7] = test system: Mycobacteroides abscessus; experiment: Antibacterial activity against Mycobacterium abscessus ATCC 19977 incubated for 3 days by microplate alamar blue assay; assay type: functional; details: ATCC 19977, 72 h, time 3 day
[8] = test system: Mycobacterium tuberculosis; experiment: Antitubercular activity against Mycobacterium tuberculosis KMA 3899 by microplate alamar blue assay; assay type: functional
[9] = test system: Mycobacterium tuberculosis; experiment: Antitubercular activity against Mycobacterium tuberculosis H37Rv by microplate alamar blue assay; assay type: functional
Mycobacteroides chelonae = experiment: Antibacterial activity against Mycobacteroides chelonae ATCC 35752 incubated for 3 days by microplate alamar blue assay; assay type: functional; details: ATCC 35752, 72 h, time 3 day
[10] = test system: Mycobacterium tuberculosis; experiment: Antitubercular activity against Mycobacterium tuberculosis KMA 4439 by microplate alamar blue assay; assay type: functional
Mitochondrial membrane [11] = experiment: Induction of […] membrane potential loss in Mycobacterium tuberculosis H37Rv at <=MIC measured after 24 hrs by DiOC2 dye based fluorescence assay; assay type: cell membranes
Mitochondrial membrane [12] = experiment: Induction of […] membrane potential loss in Mycobacterium tuberculosis H37Rv at <=MIC measured after 15 mins by DiOC2 dye based fluorescence assay; assay type: cell membranes

| Structure (SMILES) | MIC90 [1] | MIC90 (Mycobacterium marinum) [µM] | MIC90 (Mycobacterium kansasii) [µM] | MIC90 (Mycobacterium avium) [µM] | MIC90 [7] [µM] | MIC90 (Mycobacteroides chelonae) [µM] | also measured |
| --- | --- | --- | --- | --- | --- | --- | --- |
| COCCN(CCOC)C(=O)CCNCC1CCCO1 (stereo unspecified) | 92.8 µg/mL | – | – | – | – | – | – |
| O=C(CCNCC1CCCO1)NCc1cccc2ccccc12 (stereo unspecified) | 87.2 µg/mL | – | – | – | – | – | – |
| CC(C)N(C(=O)CCNCC(c1ccccc1)c1ccccc1)C(C)C | 10.2 µg/mL | – | – | – | – | – | – |
| C[C@@H]1[C@H](O)[C@@H](C)/C=C/C=C/C=C/C=C/C=C/C=C/C=C/[C@H](O[C@@H]2O[C@H](C)[C@@H](O)[C@H](N)[C@@H]2O)C[C@@H]2O[C@](O)(C[C@@H](O)C[C@@H](O)[C@H](O)CC[C@@H](O)C[C@@H](O)CC(=O)O[C@H]1C)C[C@H](O)[C@H]2C(=O)O [AMPHOTERICIN B] | – | – | – | – | – | – | MIC90 (Candida albicans): < 0.195 µM |
| COc1nc2ccc(Br)cc2cc1[C@@H](c1ccccc1)[C@@](O)(CCN(C)C)c1cccc2ccccc12 [BEDAQUILINE] | 0.01 µM | 0.45 (≈ 0.25 µg/mL) | 0.45 (≈ 0.25 µg/mL) | 0.44 (≈ 0.244 µg/mL) | 0.49 (≈ 0.272 µg/mL) | 0.48 (≈ 0.267 µg/mL) | MBC99 [2]: 150 µg/mL (≈ 270 µM); MIC90 [3]: 0.24 µM (≈ 0.133 µg/mL); MIC90 [4]: 0.24 µM (≈ 0.133 µg/mL); MIC90 [5]: 0.24 µM (≈ 0.133 µg/mL); IC50 at 3 days [6]: 51.4 µM; MIC90 [8]: 0.12 µM (≈ 0.0667 µg/mL); MIC90 [9]: 0.12 µM (≈ 0.0667 µg/mL); MIC90 [10]: 0.24 µM (≈ 0.133 µg/mL) |
| N#CC(C#N)=NNc1cccc(Cl)c1 [CARBONYL CYANIDE M-CHLOROPHENYLHYDRAZONE] | – | – | – | – | – | – | Activity (Mitochondrial membrane [11]): Active; Activity (Mitochondrial membrane [12]): inactive; IC50 at 3 days [6]: 10.8 µM |
| CC[C@H]1OC(=O)[C@H](C)[C@@H](O[C@H]2C[C@@](C)(OC)[C@@H](O)[C@H](C)O2)[C@H](C)[C@@H](O[C@@H]2O[C@H](C)C[C@H](N(C)C)[C@H]2O)[C@](C)(OC)C[C@@H](C)C(=O)[C@H](C)[C@@H](O)[C@]1(C)O [CLARITHROMYCIN] | – | 4.72 (≈ 3.53 µg/mL) | 2.3 (≈ 1.72 µg/mL) | 2.35 (≈ 1.76 µg/mL) | > 10 | 0.15 (≈ 0.112 µg/mL) | – |
| CC(C)/N=c1\cc2n(-c3ccc(Cl)cc3)c3ccccc3nc-2cc1Nc1ccc(Cl)cc1 [CLOFAZIMINE] | – | 9.92 (≈ 4.7 µg/mL) | 5.68 (≈ 2.69 µg/mL) | 5.78 (≈ 2.74 µg/mL) | 10.7 (≈ 5.06 µg/mL) | 5.89 (≈ 2.79 µg/mL) | – |
